From patent publication US11339154B2, “Heterocycle-substituted bicyclic azole pesticides” (FMC Corporation, priority 2016, dated 2022) come the findings set out here.

Holding throughout (format): in vivo
Experiment [1] concerns cotton melon aphid (Aphis gossypii (Glover)). The experiment can be described thus: whole plant or invertebrate. The note with it: 144 h, 6 days; for mortality at 50 ppm: 50 ppm spray; for mortality at 250 ppm: 250 ppm spray. The procedure:
(§1) Formulation and Spray Methodology for Tests A-F
(§2) Test compounds were formulated using a solution containing 10% acetone, 90% water and 300 ppm X-77® Spreader Lo-Foam Formula non-ionic surfactant containing alkylarylpolyoxyethylene, free fatty acids, glycols and isopropanol (Loveland Industries, Inc. Greeley, Colo., USA). The formulated compounds were applied in 1 mL of liquid through a SUJ2 atomizer nozzle with 1/8 JJ custom body (Spraying Systems Co. Wheaton, Ill., USA) positioned 1.27 cm (0.5 inches) above the top of each test unit. Test compounds were sprayed at the rates indicated, and each test was replicated three times.
For evaluating control of cotton melon aphid (Aphis gossypii (Glover)) through contact and/or systemic means, the test unit consisted of a small open container with a 6-7-day-old cotton plant inside. This was pre-infested with 30-40 insects on a piece of leaf according to the cut-leaf method, and the soil of the test unit was covered with a layer of sand.
Test compounds were formulated and sprayed at 250 and/or 50 ppm. After spraying, the test units were maintained in a growth chamber for 6 days at 19° C. and 70% relative humidity. Each test unit was then visually assessed for insect mortality.

In experiment [2] the test system is green peach aphid (Myzus persicae (Sulzer)). The experiment can be described thus: whole plant or invertebrate. The conditions noted are these: in Raphanus sativus, 144 h, 6 days; for mortality at 50 ppm: 50 ppm spray; for mortality at 250 ppm: 250 ppm spray. The procedure: as §1, §2
For evaluating control of green peach aphid (Myzus persicae (Sulzer)) through contact and/or systemic means, the test unit consisted of a small open container with a 12-15-day-old radish plant inside. This was pre-infested by placing on a leaf of the test plant 30-40 aphids on a piece of leaf excised from a culture plant (cut-leaf method). The aphids moved onto the test plant as the leaf piece desiccated. After pre-infestation, the soil of the test unit was covered with a layer of sand.
Test compounds were formulated and sprayed at 250 and/or 50 ppm. After spraying of the formulated test compound, each test unit was allowed to dry for 1 hour and then a black, screened cap was placed on top. The test units were held for 6 days in a growth chamber at 19-21° C. and 50-70% relative humidity. Each test unit was then visually assessed for insect mortality.

Experiment [3] relates to sweetpotato whitefly (Bemisia tabaci (Gennadius)). The experiment can be described thus: whole plant or invertebrate. The conditions noted are these: in Gossypium hirsutum, 312 h, 13 days; for mortality at 50 ppm: 50 ppm spray; for mortality at 250 ppm: 250 ppm spray. The procedure:
as §1, §2
For evaluating control of the sweetpotato whitefly (Bemisia tabaci (Gennadius)) through contact and/or systemic means, the test unit consisted of a small open container with a 12-14-day-old cotton plant inside. Prior to the spray application, both cotyledons were removed from the plant, leaving one true leaf for the assay. Adult whiteflies were allowed to lay eggs on the plant and then were removed from the test unit. Cotton plants infested with at least 15 eggs were submitted to the test for spraying.
Test compounds were formulated and sprayed at 250 and/or 50 ppm. After spraying, the test units were allowed to dry for 1 hour. The cylinders were then removed, and the units were taken to a growth chamber and held for 13 days at 28° C. and 50-70% relative humidity. Each test unit was then visually assessed for insect mortality.

Experiment [4] concerns Western Flower Thrips (Frankliniellla occidentalis (Pergande)). The experiment can be described thus: Test F: control of Western Flower Thrips on Soleil bean plant, contact and/or systemic, spray. The note with it: 50 ppm spray; 6 days; very good to excellent control; criterion is plant damage and/or 100% mortality. The procedure:
as §1, §2
For evaluating control of the Western Flower Thrips (Frankliniellla occidentalis (Pergande)) through contact and/or systemic means, the test unit consisted of a small open container with a 5-7-day-old Soleil bean plant inside.
Test compounds were formulated and sprayed at 250 and/or 50 ppm. After spraying, the test units were allowed to dry for 1 hour, and then 22-27 adult thrips were added to each unit. A black, screened cap was placed on top, and the test units were held for 6 days at 25° C. and 45-55% relative humidity.

A value given as a limit tells only on which side of the number the result lay.

By mortality is commonly meant the share of the test organisms that died. Take `CN(C)C(=O)C1(NC(=O)c2cc(-c3ccc4nn(-c5cccnc5)cc4c3)ccn2)CC1` [Compound 87, N-[1-[(dimethylamino)carbonyl]cyclopropyl]-4-[2-(3-pyridinyl)-2H-indazol-5-yl]-2-pyridinecarboxamide]: the mortality at 50 ppm in experiment [1] and in experiment [2] was ≥ 80% in each case.
Consider `COC(CNC(=O)c1cccc(-c2ccc3nn(-c4cccnc4)cc3c2)c1)OC` [Compound 25, N-(2,2-dimethoxyethyl)-3-[2-(3-pyridinyl)-2H-indazol-5-yl]benzamide], for which the mortality at 50 ppm is ≥ 50% in experiment [3], ≥ 80% in experiment [1] and ≥ 80% in experiment [2]. For the same molecule, the values for the mortality at 250 ppm in experiment [3], in experiment [1] and in experiment [2] were ≥ 50%, ≥ 80% and ≥ 80%, respectively.
For the molecule `O=C(NC1CCOCC1)c1csc(-c2ccc3nn(-c4cccnc4)cc3c2)n1` [Compound 64, 2-[2-(3-pyridinyl)-2H-indazol-5-yl]-N-(tetrahydro-2H-pyran-4-yl)-4-thiazolecarboxamide], the values for the mortality at 250 ppm in experiment [3], in experiment [1] and in experiment [2] were ≥ 50%, ≥ 80% and ≥ 80%, respectively. Moreover, the mortality at 50 ppm in experiment [1] and in experiment [2] was ≥ 80% throughout.
With `COC(=O)C(C)(C)NC(=O)c1nnc(-c2ccc3nn(-c4cccnc4)cc3c2)o1` [Compound 105, 2-methyl-N-[[5-[2-(3-pyridinyl)-2H-indazol-5-yl]-1,3,4-oxadiazol-2-yl]carbonyl]alanine methyl ester], the mortality at 50 ppm in experiment [1] is ≥ 80%.
As for `CNC(=O)C1(NC(=O)c2cc(-c3ccc4nn(-c5cccnc5)cc4c3)ccn2)CC1` [Compound 85, N-[1-[(methylamino)carbonyl]cyclopropyl]-4-[2-(3-pyridinyl)-2H-indazol-5-yl]-2-pyridinecarboxamide], the mortality at 50 ppm in experiment [1] and in experiment [2] was ≥ 80% in each case.
Regarding `COC(CNC(=O)c1ccc(-c2ccc3nn(-c4cccnc4)cc3c2)c(Cl)c1)OC` [Compound 18], the “control efficacy: plant damage (30% or less plant damage and/or 100% mortality)” value in experiment [4] is ≤ 30%.
On to `CNC(=O)COc1cccc(-c2ccc3nn(-c4cccnc4)cc3c2)c1` [Compound 102, N-methyl-2-[3-[2-(3-pyridinyl)-2H-indazol-5-yl]phenoxy]acetamide], for which the figures for the mortality at 50 ppm in experiment [3], in experiment [1] and in experiment [2] were ≥ 50%, ≥ 80% and ≥ 80%, respectively. In experiment [3], the mortality at 250 ppm was ≥ 50%.
`CC(C)(C#N)NC(=O)c1coc(-c2ccc3nn(-c4cccnc4)cc3c2)n1` [Compound 155, N-(1-cyano-1-methylethyl)-2-[2-(3-pyridinyl)-2H-indazol-5-yl]-4-oxazolecarboxamide]: the mortality at 50 ppm in experiment [1] and in experiment [2] was ≥ 80% throughout.
Take `COC(=O)C(C)(C)NC(=O)c1nnc(-c2ccc3nn(-c4cccnc4)cc3c2)s1` [Compound 128, 2-methyl-N-[[5-[2-(3-pyridinyl)-2H-indazol-5-yl]-1,3,4-thiadiazol-2-yl]carbonyl]alanine methyl ester]: in experiment [1], the mortality at 50 ppm was ≥ 80%.
Turning to `O=C(NCc1ncccn1)c1ncsc1-c1ccc2nn(-c3cccnc3)cc2c1` [Compound 78, 5-[2-(3-pyridinyl)-2H-indazol-5-yl]-N-(2-pyrimidinylmethyl)-4-thiazolecarboxamide], the mortality at 50 ppm in experiment [1] is ≥ 80%. In experiment [2], the mortality at 50 ppm is ≥ 80% and the mortality at 250 ppm is ≥ 80%.
In the case of `NC(=O)C1(NC(=O)c2cc(-c3ccc4nn(-c5cccnc5)cc4c3)ccn2)CC1` [Compound 86, N-[1-(aminocarbonyl)cyclopropyl]-4-[2-(3-pyridinyl)-2H-indazol-5-yl]-2-pyridinecarboxamide], the mortality at 50 ppm in experiment [1] and in experiment [2] was ≥ 80% in each case.
Consider `O=C(NCCO)c1cccc(-c2ccc3nn(-c4cccnc4)cc3c2)c1` [Compound 31, N-(2-hydroxyethyl)-3-[2-(3-pyridinyl)-2H-indazol-5-yl]benzamide], for which, in experiment [1], the mortality at 50 ppm is ≥ 80% and the mortality at 250 ppm was ≥ 80%. In experiment [2], the mortality at 50 ppm was ≥ 80% and the mortality at 250 ppm is ≥ 80%.
